Experimental data: ChEMBL document CHEMBL4376864, “Binding Loop Substitutions in the Cyclic Peptide SFTI-1 Generate Potent and Selective Chymase Inhibitors” (J Med Chem, 2020)
Bridge positions count the residues as written; N and C are the ends. Square brackets hold non-standard residues; d marks the D form. Peptide text beside a SMILES is read from it. * marks the point of attachment. Phe(4-NO2) = N[C@@H](Cc1ccc([N+](=O)[O-])cc1)C(=O)O; Phe(4-tBu) = CC(C)(C)c1ccc(C[C@H](N)C(=O)O)cc1; Bip = N[C@@H](Cc1ccc(-c2ccccc2)cc1)C(=O)O; pNA = O=[N+]([O-])c1ccc(N*)cc1; Nle = CCCC[C@H](N)C(=O)O

Legend:
[1] = molecular target: T1, Cathepsin G (Homo sapiens, UniProt P08311); experiment: Inhibition of human cathepsin G using Suc-AAPF-MCA as substrate at pH 7.2 and 298 K measured every 60 secs for 600 secs
T1 sequence (P08311 whole entry): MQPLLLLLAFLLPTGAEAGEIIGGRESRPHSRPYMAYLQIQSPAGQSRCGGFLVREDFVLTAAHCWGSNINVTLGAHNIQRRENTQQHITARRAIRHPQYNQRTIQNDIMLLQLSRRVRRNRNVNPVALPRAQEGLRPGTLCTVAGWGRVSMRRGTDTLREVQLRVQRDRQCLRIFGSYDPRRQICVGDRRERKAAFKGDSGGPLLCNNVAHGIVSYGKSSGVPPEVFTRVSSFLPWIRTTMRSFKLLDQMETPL

[2] = molecular target: Chymotrypsin (Homo sapiens, UniProt Q99895+P17538+P40313+Q6GPI1); experiment: Inhibition of human chymotrypsin using Suc-AAPF-MCA as substrate at pH 8 and 298 K measured every 60 secs for 600 secs; type: protein assay
[3] = molecular target: T2, Chymase (Homo sapiens, UniProt P23946); experiment: Inhibition of recombinant human chymase expressed in Pichia pastoris X-33 cells using NleTDY-pNA as substrate assessed as cleavage of pNA at pH 7.2 and 298 K by spectrophotometry analysis
T2 sequence (P23946 whole entry): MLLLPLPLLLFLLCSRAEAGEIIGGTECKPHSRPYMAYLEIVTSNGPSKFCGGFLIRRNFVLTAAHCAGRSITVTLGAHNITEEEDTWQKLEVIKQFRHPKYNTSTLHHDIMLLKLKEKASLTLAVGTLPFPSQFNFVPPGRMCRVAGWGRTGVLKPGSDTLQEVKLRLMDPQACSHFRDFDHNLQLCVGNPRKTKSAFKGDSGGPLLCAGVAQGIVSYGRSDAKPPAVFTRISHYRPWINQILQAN

[4] = molecular target: T2, Chymase; experiment: Substrate activity at recombinant human chymase expressed in Pichia pastoris X-33 cells assessed as ratio of Kcat/Km by spectrophotometry analysis; type: ADME
[5] = molecular target: T2, Chymase; experiment: Substrate activity at recombinant human chymase expressed in Pichia pastoris X-33 cells assessed as Kcat by spectrophotometry analysis; type: ADME
[6] = molecular target: T2, Chymase; experiment: Substrate activity at recombinant human chymase expressed in Pichia pastoris X-33 cells assessed as Km by spectrophotometry analysis; type: ADME
[7] = molecular target: Prothrombin (Homo sapiens, UniProt P00734); experiment: Inhibition of human thrombin using Boc-VPR-MCA as substrate at pH 8 and 298 K measured every 60 secs for 600 secs
[8] = molecular target: Kallikrein-7 (Homo sapiens, UniProt P49862); experiment: Inhibition of recombinant human KLK7 expressed in Pichia pastoris X-33 using KHLY-pNA as substrate at pH 8 and 298 K measured every 60 secs for 600 secs
Kallikrein-7, sequence (P49862 whole entry): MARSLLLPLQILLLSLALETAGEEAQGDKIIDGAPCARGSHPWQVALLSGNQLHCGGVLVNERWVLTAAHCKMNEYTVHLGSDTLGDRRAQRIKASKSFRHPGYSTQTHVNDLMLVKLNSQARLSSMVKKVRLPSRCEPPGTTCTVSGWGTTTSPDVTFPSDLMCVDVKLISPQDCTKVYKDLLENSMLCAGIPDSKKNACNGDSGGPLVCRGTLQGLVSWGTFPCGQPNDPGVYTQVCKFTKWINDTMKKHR

[9] = molecular target: T3, Coagulation factor XII (Homo sapiens, UniProt P00748); experiment: Inhibition of human coagulation factor 12a using Ac-QRFR-pNA as substrate at pH 8 and 298 K measured every 60 secs for 600 secs
T3 sequence (P00748 whole entry): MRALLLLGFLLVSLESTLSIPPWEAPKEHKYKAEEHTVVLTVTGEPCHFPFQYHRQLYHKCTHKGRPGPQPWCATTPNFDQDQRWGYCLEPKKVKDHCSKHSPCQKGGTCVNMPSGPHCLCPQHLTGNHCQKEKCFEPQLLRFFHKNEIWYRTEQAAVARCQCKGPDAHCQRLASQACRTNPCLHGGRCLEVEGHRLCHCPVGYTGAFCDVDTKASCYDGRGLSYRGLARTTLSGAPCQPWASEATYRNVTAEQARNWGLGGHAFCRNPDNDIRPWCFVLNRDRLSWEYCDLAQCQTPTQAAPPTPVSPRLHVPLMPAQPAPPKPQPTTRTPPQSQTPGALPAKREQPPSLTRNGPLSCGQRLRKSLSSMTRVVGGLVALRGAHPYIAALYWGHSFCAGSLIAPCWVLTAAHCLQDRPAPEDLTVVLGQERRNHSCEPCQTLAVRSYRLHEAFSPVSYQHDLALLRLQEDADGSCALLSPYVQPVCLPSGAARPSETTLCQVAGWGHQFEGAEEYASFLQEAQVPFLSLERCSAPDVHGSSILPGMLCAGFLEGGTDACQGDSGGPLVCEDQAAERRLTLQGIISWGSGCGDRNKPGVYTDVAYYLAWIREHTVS

[10] = molecular target: T4, Neutrophil elastase (Homo sapiens, UniProt P08246); experiment: Inhibition of human neutrophil elastase using MeOSuc-AAPV-MCA as substrate at pH 7.2 and 298 K measured every 60 secs for 600 secs
T4 sequence (P08246 whole entry): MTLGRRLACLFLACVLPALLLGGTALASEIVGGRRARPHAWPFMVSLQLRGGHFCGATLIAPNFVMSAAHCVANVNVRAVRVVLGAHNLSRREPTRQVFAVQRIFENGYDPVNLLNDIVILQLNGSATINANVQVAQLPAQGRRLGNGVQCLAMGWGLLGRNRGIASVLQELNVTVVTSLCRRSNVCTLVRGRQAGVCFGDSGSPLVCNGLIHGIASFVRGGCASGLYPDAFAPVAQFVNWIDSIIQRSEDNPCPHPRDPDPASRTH

[11] = species on record: Homo sapiens; experiment: Selectivity index, ratio of Ki for human cathepsin G using Suc-AAPF-MCA as substrate to Ki for recombinant human chymase expressed in Pichia pastoris X-33 cells using NleTDY-pNA as substrate
[12] = Inhibition of human cationic trypsin using Boc-VPR-MCA as substrate at pH 8 and 298 K measured every 60 secs for 600 secs

CC[C@H](C)[C@@H]1NC(=O)[C@@H]2CCCN2C(=O)[C@@H]2CCCN2C(=O)[C@H](CCC(=O)O)NC(=O)[C@H](CO)NC(=O)[C@H](Cc2ccc(O)cc2)NC(=O)[C@H]([C@@H](C)O)NC(=O)[C@@H]2CSSC[C@H](NC1=O)C(=O)N[C@@H](Cc1ccccc1)C(=O)N1CCC[C@H]1C(=O)N[C@@H](CC(=O)O)C(=O)NCC(=O)N[C@@H](CCCNC(=N)N)C(=O)N2 (cyclo(CFPDGRCTYSEPPI); disulfide 1-7)
Ki [1]: 8.2 nM | Ki [2]: 0.88 nM

CC(C)(C)c1ccc(C[C@@H]2NC(=O)[C@H](CCC(N)=O)NC(=O)[C@@H]3CSSC[C@H](NC(=O)[C@H](CCC(=O)O)NC(=O)[C@@H]4CCCN4C(=O)[C@@H]4CCCN4C(=O)[C@H](CCC(=O)O)NC(=O)[C@H](CO)NC2=O)C(=O)N[C@@H](Cc2ccccc2)C(=O)N2CCC[C@H]2C(=O)N[C@@H](CC(=O)O)C(=O)NCC(=O)N[C@@H](CCCNC(=N)N)C(=O)N3)cc1 (cyclo(CFPDGRCQ[Phe(4-tBu)]SEPPE); disulfide 1-7)
IC50 [3]: > 10000 nM

CC[C@H](C)[C@@H]1NC(=O)[C@@H]2CCCN2C(=O)[C@@H]2CCCN2C(=O)[C@H]([C@@H](C)CC)NC(=O)[C@H](CO)NC(=O)[C@H](CCCCN)NC(=O)[C@H]([C@@H](C)O)NC(=O)[C@@H]2CSSC[C@H](NC1=O)C(=O)N[C@@H](Cc1ccccc1)C(=O)N1CCC[C@H]1C(=O)N[C@@H](CC(=O)O)C(=O)NCC(=O)N[C@@H](CCCNC(=N)N)C(=O)N2
IC50 [3]: > 5000 nM

CC[C@H](C)[C@@H]1NC(=O)[C@@H]2CCCN2C(=O)[C@@H]2CCCN2C(=O)[C@H](CCC(=O)O)NC(=O)[C@H](CO)NC(=O)[C@H](Cc2ccc(O)cc2)NC(=O)[C@H](C)NC(=O)[C@@H]2CSSC[C@H](NC1=O)C(=O)N[C@@H](Cc1ccccc1)C(=O)N1CCC[C@H]1C(=O)N[C@@H](CC(=O)O)C(=O)NCC(=O)N[C@@H](Cc1ccccc1)C(=O)N2 (cyclo(AYSEPPICFPDGFC); disulfide 8-14)
Ki [1]: < 0.1 nM | Ki [2]: 0.42 nM

C[C@@H](O)[C@H](NC(=O)[C@H](CCC(=O)O)NC(=O)[C@@H](N)CCCNC(=N)N)C(=O)N[C@@H](Cc1ccc(O)cc1)C(=O)Nc1ccc([N+](=O)[O-])cc1 (H-RETY-pNA)
Kcat/Km [4]: 3.2 ×10⁴ /M/s | Kcat [5]: 13 s⁻¹ | Km [6]: 410 µM

CCCC[C@@H]1NC(=O)CNC(=O)[C@H](CC(=O)O)NC(=O)[C@@H]2CCCN2C(=O)[C@H](Cc2ccccc2)NC(=O)[C@@H]2CSSC[C@H](NC1=O)C(=O)N[C@@H](CC(=O)O)C(=O)N[C@@H](Cc1ccc(O)cc1)C(=O)N[C@@H](CO)C(=O)N[C@@H]([C@@H](C)CC)C(=O)N1CCC[C@H]1C(=O)N1CCC[C@H]1C(=O)N[C@@H]([C@@H](C)CC)C(=O)N2 (cyclo(CDYSIPPICFPDG[Nle]); disulfide 1-9)
IC50 [3]: > 5000 nM

N=C(N)NCCC[C@@H]1NC(=O)CNC(=O)[C@H](CC(=O)O)NC(=O)[C@@H]2CCCN2C(=O)[C@H](Cc2ccccc2)NC(=O)[C@@H]2CSSC[C@H](NC1=O)C(=O)N[C@@H](CCC(N)=O)C(=O)N[C@@H](Cc1ccc([N+](=O)[O-])cc1)C(=O)N[C@@H](CO)C(=O)N[C@@H](CCC(=O)O)C(=O)N1CCC[C@H]1C(=O)N1CCC[C@H]1C(=O)N[C@@H](CCC(=O)O)C(=O)N2 (cyclo(CFPDGRCQ[Phe(4-NO2)]SEPPE); disulfide 1-7)
IC50 [7]: > 10000 nM | Ki [3]: 54 nM | IC50 [8]: > 10000 nM | IC50 [9]: > 10000 nM | Ki [1]: 5200 nM | IC50 [10]: > 10000 nM | Ki [2]: 920 nM | Ratio Ki [11]: 96 | IC50 [12]: > 10000 nM

C[C@@H](O)[C@H](NC(=O)[C@@H](NC(=O)[C@@H](N)CCCNC(=N)N)[C@@H](C)O)C(=O)N[C@@H](Cc1ccc(O)cc1)C(=O)Nc1ccc([N+](=O)[O-])cc1 (H-RTTY-pNA)
Kcat/Km [4]: 3.4 ×10⁴ /M/s | Kcat [5]: 18 s⁻¹ | Km [6]: 530 µM

CCCC[C@H](N)C(=O)N[C@H](C(=O)N[C@@H](CC(=O)O)C(=O)N[C@@H](Cc1ccc(O)cc1)C(=O)Nc1ccc([N+](=O)[O-])cc1)[C@@H](C)O (H-[Nle]TDY-pNA)
Kcat/Km [4]: 4 ×10⁴ /M/s | Kcat [5]: 22 s⁻¹ | Km [6]: 550 µM

CC[C@H](C)[C@@H]1NC(=O)[C@@H]2CCCN2C(=O)[C@@H]2CCCN2C(=O)[C@H]([C@@H](C)CC)NC(=O)[C@H](CO)NC(=O)[C@H](Cc2ccc(O)cc2)NC(=O)[C@H](CC(=O)O)NC(=O)[C@@H]2CSSC[C@H](NC1=O)C(=O)N[C@@H](Cc1ccccc1)C(=O)N1CCC[C@H]1C(=O)N[C@@H](CC(=O)O)C(=O)NCC(=O)N[C@@H](Cc1ccccc1)C(=O)N2 (cyclo(CDYSIPPICFPDGF); disulfide 1-9)
IC50 [3]: > 5000 nM

C[C@@H](O)[C@H](NC(=O)[C@@H](N)Cc1ccccc1)C(=O)N[C@@H](CC(=O)O)C(=O)N[C@@H](Cc1ccc(O)cc1)C(=O)Nc1ccc([N+](=O)[O-])cc1 (H-FTDY-pNA)
Kcat/Km [4]: 3.8 ×10⁴ /M/s | Kcat [5]: 14 s⁻¹ | Km [6]: 370 µM

C[C@@H](O)[C@@H]1NC(=O)[C@@H]2CSSC[C@H](NC(=O)[C@H](CCC(=O)O)NC(=O)[C@@H]3CCCN3C(=O)[C@@H]3CCCN3C(=O)[C@H](CCC(=O)O)NC(=O)[C@H](CO)NC(=O)[C@H](Cc3ccc(O)cc3)NC1=O)C(=O)N[C@@H](Cc1ccccc1)C(=O)N1CCC[C@H]1C(=O)N[C@@H](CC(=O)O)C(=O)NCC(=O)N[C@@H](CCCNC(=N)N)C(=O)N2 (cyclo(CFPDGRCTYSEPPE); disulfide 1-7)
Ki [1]: 14 nM | Ki [2]: 11 nM

CC[C@H](C)[C@@H]1NC(=O)[C@@H]2CCCN2C(=O)[C@@H]2CCCN2C(=O)[C@H](Cc2ccc(-c3ccccc3)cc2)NC(=O)[C@H](CO)NC(=O)[C@H](Cc2ccc(O)cc2)NC(=O)[C@H](C)NC(=O)[C@@H]2CSSC[C@H](NC1=O)C(=O)N[C@@H](Cc1ccccc1)C(=O)N1CCC[C@H]1C(=O)N[C@@H](CC(=O)O)C(=O)NCC(=O)N[C@@H](Cc1ccccc1)C(=O)N2 (cyclo(AYS[Bip]PPICFPDGFC); disulfide 8-14)
Ki [1]: 7.4 nM | Ki [2]: 1.5 nM

CC[C@H](C)[C@@H]1NC(=O)[C@@H]2CCCN2C(=O)[C@@H]2CCCN2C(=O)[C@H](CCC(=O)O)NC(=O)[C@H](CO)NC(=O)[C@H](Cc2ccc(O)cc2)NC(=O)[C@H](CCC(N)=O)NC(=O)[C@@H]2CSSC[C@H](NC1=O)C(=O)N[C@@H](Cc1ccccc1)C(=O)N1CCC[C@H]1C(=O)N[C@@H](CC(=O)O)C(=O)NCC(=O)N[C@@H](CCCNC(=N)N)C(=O)N2 (cyclo(CFPDGRCQYSEPPI); disulfide 1-7)
Ki [1]: 0.26 nM | Ki [2]: 150 nM
